Like-named read-outs stand apart in the source and are kept apart here.
Test system: PABPC1 PABC
Format: binding, human
Settings: DMS-BM library, bait PABPC1 PABC, row aa = residue at this position; for DMS-derived PSSM value (averaged), position E8 / DMS-derived PSSM value, position E10 / DMS-derived PSSM value, position E8: E = wild type; for DMS-derived PSSM value, position L4: L = wild type
[1] = prey ATXN2, TLNPNAKEFNPRSF(averaged) over the two overlapping peptides
[2] = prey ATXN2, peptide KSTLNPNAKEFNPRSF, A = wild type
[3] = prey ATXN2, peptide KSTLNPNAKEFNPRSF
[4] = prey ATXN2, peptide KSTLNPNAKEFNPRSF, F = wild type
[5] = prey ATXN2, peptide KSTLNPNAKEFNPRSF, K = wild type
[6] = prey ATXN2, peptide KSTLNPNAKEFNPRSF, N = wild type
[7] = prey ATXN2, peptide KSTLNPNAKEFNPRSF, P = wild type
[8] = prey ATXN2, peptide KSTLNPNAKEFNPRSF, S = wild type
[9] = prey ATXN2, peptide KSTLNPNAKEFNPRSF, T = wild type
[10] = prey ATXN2, peptide TLNPNAKEFNPRSFSQ, N = wild type
[11] = prey ATXN2, peptide TLNPNAKEFNPRSFSQ, S = wild type
[12] = prey ATXN2, peptide TLNPNAKEFNPRSFSQ, T = wild type
[13] = prey ATXN2, peptide TLNPNAKEFNPRSFSQ, A = wild type
[14] = prey ATXN2, peptide TLNPNAKEFNPRSFSQ, R = wild type
[15] = prey ATXN2, peptide TLNPNAKEFNPRSFSQ
[16] = prey ATXN2, TLNPNAKEFNPRSF(averaged) over the two overlapping peptides, P = wild type
[17] = prey ATXN2, TLNPNAKEFNPRSF(averaged) over the two overlapping peptides, S = wild type
[18] = prey ATXN2, peptide TLNPNAKEFNPRSFSQ, P = wild type
[19] = prey ATXN2, TLNPNAKEFNPRSF(averaged) over the two overlapping peptides, F = wild type

## TLNPNAKEFNPRSF(averaged) E8H (TLNPNAKHFNPRSF)
[1]
  DMS-derived PSSM value (averaged), position E8: 0.2075

## KSTLNPNAKEFNPRSF
[2]
  DMS-derived PSSM value, position A8: 0.5804
[3]
  DMS-derived PSSM value, position E10: 0.1617
  DMS-derived PSSM value, position L4: 0.6837
[4]
  DMS-derived PSSM value, position F11: 0.393
  DMS-derived PSSM value, position F16: 0.06015
[5]
  DMS-derived PSSM value, position K9: 0.008078
[6]
  DMS-derived PSSM value, position N5: 0.9124
  DMS-derived PSSM value, position N7: 0.02963
  DMS-derived PSSM value, position N12: 0.02408
[7]
  DMS-derived PSSM value, position P6: 0.1132
  DMS-derived PSSM value, position P13: 0.007578
Prey ATXN2, peptide KSTLNPNAKEFNPRSF, R = wild type
  DMS-derived PSSM value, position R14: 0.01898
[8]
  DMS-derived PSSM value, position S2: 0.03631
  DMS-derived PSSM value, position S15: 0.05273
[9]
  DMS-derived PSSM value, position T3: 0.04565

## TLNPNAKEFNPRSFSQ N10K (TLNPNAKEFKPRSFSQ)
[10]
  DMS-derived PSSM value, position N10: 0.01052

## TLNPNAKEFNPRSFSQ S13Y (TLNPNAKEFNPRYFSQ)
[11]
  DMS-derived PSSM value, position S13: 0.04643

## KSTLNPNAKEFNPRSF P13T (KSTLNPNAKEFNTRSF)
[7]
  DMS-derived PSSM value, position P13: 0.0002514

## KSTLNPNAKEFNPRSF P6I (KSTLNINAKEFNPRSF)
[7]
  DMS-derived PSSM value, position P6: 0.3229

## TLNPNAKEFNPRSFSQ N3A (TLAPNAKEFNPRSFSQ)
[10]
  DMS-derived PSSM value, position N3: 0

## KSTLNPNAKEFNPRSF S2W (KWTLNPNAKEFNPRSF)
[8]
  DMS-derived PSSM value, position S2: 0.0005784

## TLNPNAKEFNPRSFSQ T1N (NLNPNAKEFNPRSFSQ)
[12]
  DMS-derived PSSM value, position T1: 0.02571

## TLNPNAKEFNPRSFSQ A6F (TLNPNFKEFNPRSFSQ)
[13]
  DMS-derived PSSM value, position A6: 0

## TLNPNAKEFNPRSFSQ R12G (TLNPNAKEFNPGSFSQ)
[14]
  DMS-derived PSSM value, position R12: 0.02158

## KSTLNPNAKEFNPRSF L4W (KSTWNPNAKEFNPRSF)
[3]
  DMS-derived PSSM value, position L4: 0

## KSTLNPNAKEFNPRSF E10Q (KSTLNPNAKQFNPRSF)
[3]
  DMS-derived PSSM value, position E10: 0

## KSTLNPNAKEFNPRSF F11K (KSTLNPNAKEKNPRSF)
[4]
  DMS-derived PSSM value, position F11: 0.006092

## TLNPNAKEFNPRSFSQ E8V (TLNPNAKVFNPRSFSQ)
[15]
  DMS-derived PSSM value, position E8: 0.09834

## TLNPNAKEFNPRSF(averaged) P11V (TLNPNAKEFNVRSF)
[16]
  DMS-derived PSSM value (averaged), position P11: 0.44

## TLNPNAKEFNPRSF(averaged) E8I (TLNPNAKIFNPRSF)
[1]
  DMS-derived PSSM value (averaged), position E8: 0.006482

## TLNPNAKEFNPRSF(averaged) S13R (TLNPNAKEFNPRRF)
[17]
  DMS-derived PSSM value (averaged), position S13: 0.00496

## TLNPNAKEFNPRSFSQ P4H (TLNHNAKEFNPRSFSQ)
[18]
  DMS-derived PSSM value, position P4: 0.0297

## TLNPNAKEFNPRSFSQ S15V (TLNPNAKEFNPRSFVQ)
[11]
  DMS-derived PSSM value, position S15: 0.009732

## KSTLNPNAKEFNPRSF S15T (KSTLNPNAKEFNPRTF)
[8]
  DMS-derived PSSM value, position S15: 0.007163

## KSTLNPNAKEFNPRSF P13D (KSTLNPNAKEFNDRSF)
[7]
  DMS-derived PSSM value, position P13: 0.0004732

## TLNPNAKEFNPRSF(averaged) P4H (TLNHNAKEFNPRSF)
[16]
  DMS-derived PSSM value (averaged), position P4: 0.02342

## TLNPNAKEFNPRSFSQ S15G (TLNPNAKEFNPRSFGQ)
[11]
  DMS-derived PSSM value, position S15: 0.2429

## KSTLNPNAKEFNPRSF P6H (KSTLNHNAKEFNPRSF)
[7]
  DMS-derived PSSM value, position P6: 0.01713

## TLNPNAKEFNPRSF(averaged) A6L (TLNPNLKEFNPRSF)
Prey ATXN2, TLNPNAKEFNPRSF(averaged) over the two overlapping peptides, A = wild type
  DMS-derived PSSM value (averaged), position A6: 0

## TLNPNAKEFNPRSF(averaged) P11H (TLNPNAKEFNHRSF)
[16]
  DMS-derived PSSM value (averaged), position P11: 0.07852

## TLNPNAKEFNPRSF(averaged) T1V (VLNPNAKEFNPRSF)
Prey ATXN2, TLNPNAKEFNPRSF(averaged) over the two overlapping peptides, T = wild type
  DMS-derived PSSM value (averaged), position T1: 0.1224

## TLNPNAKEFNPRSFSQ A6N (TLNPNNKEFNPRSFSQ)
[13]
  DMS-derived PSSM value, position A6: 0

## TLNPNAKEFNPRSFSQ F14T (TLNPNAKEFNPRSTSQ)
Prey ATXN2, peptide TLNPNAKEFNPRSFSQ, F = wild type
  DMS-derived PSSM value, position F14: 0.006633

## TLNPNAKEFNPRSF(averaged) S13Q (TLNPNAKEFNPRQF)
[17]
  DMS-derived PSSM value (averaged), position S13: 0.009251

## TLNPNAKEFNPRSF(averaged) S13A (TLNPNAKEFNPRAF)
[17]
  DMS-derived PSSM value (averaged), position S13: 0.1254

## KSTLNPNAKEFNPRSF F16R (KSTLNPNAKEFNPRSR)
[4]
  DMS-derived PSSM value, position F16: 0

## TLNPNAKEFNPRSF(averaged) S13E (TLNPNAKEFNPREF)
[17]
  DMS-derived PSSM value (averaged), position S13: 0.01358

## TLNPNAKEFNPRSF(averaged) F9M (TLNPNAKEMNPRSF)
[19]
  DMS-derived PSSM value (averaged), position F9: 0

## TLNPNAKEFNPRSFSQ T1P (PLNPNAKEFNPRSFSQ)
[12]
  DMS-derived PSSM value, position T1: 0.04902

## TLNPNAKEFNPRSF(averaged) F9A (TLNPNAKEANPRSF)
[19]
  DMS-derived PSSM value (averaged), position F9: 0

## TLNPNAKEFNPRSFSQ P11G (TLNPNAKEFNGRSFSQ)
[18]
  DMS-derived PSSM value, position P11: 0.04287

## KSTLNPNAKEFNPRSF E10R (KSTLNPNAKRFNPRSF)
[3]
  DMS-derived PSSM value, position E10: 0

## TLNPNAKEFNPRSFSQ T1K (KLNPNAKEFNPRSFSQ)
[12]
  DMS-derived PSSM value, position T1: 0.03828

## KSTLNPNAKEFNPRSF A8G (KSTLNPNGKEFNPRSF)
[2]
  DMS-derived PSSM value, position A8: 0

## TLNPNAKEFNPRSFSQ P4L (TLNLNAKEFNPRSFSQ)
[18]
  DMS-derived PSSM value, position P4: 0.05708

## TLNPNAKEFNPRSFSQ N10W (TLNPNAKEFWPRSFSQ)
[10]
  DMS-derived PSSM value, position N10: 0.06015

## KSTLNPNAKEFNPRSF T3N (KSNLNPNAKEFNPRSF)
[9]
  DMS-derived PSSM value, position T3: 0.01165

## KSTLNPNAKEFNPRSF S15H (KSTLNPNAKEFNPRHF)
[8]
  DMS-derived PSSM value, position S15: 0.1165

## KSTLNPNAKEFNPRSF A8W (KSTLNPNWKEFNPRSF)
[2]
  DMS-derived PSSM value, position A8: 0

## TLNPNAKEFNPRSF(averaged) N5E (TLNPEAKEFNPRSF)
Prey ATXN2, TLNPNAKEFNPRSF(averaged) over the two overlapping peptides, N = wild type
  DMS-derived PSSM value (averaged), position N5: 0.01598

## TLNPNAKEFNPRSFSQ T1L (LLNPNAKEFNPRSFSQ)
[12]
  DMS-derived PSSM value, position T1: 0.1166

## TLNPNAKEFNPRSF(averaged) K7G (TLNPNAGEFNPRSF)
Prey ATXN2, TLNPNAKEFNPRSF(averaged) over the two overlapping peptides, K = wild type
  DMS-derived PSSM value (averaged), position K7: 0.008693

## TLNPNAKEFNPRSFSQ E8W (TLNPNAKWFNPRSFSQ)
[15]
  DMS-derived PSSM value, position E8: 0

## TLNPNAKEFNPRSFSQ A6P (TLNPNPKEFNPRSFSQ)
[13]
  DMS-derived PSSM value, position A6: 0

## KSTLNPNAKEFNPRSF K9F (KSTLNPNAFEFNPRSF)
[5]
  DMS-derived PSSM value, position K9: 0.02411

## TLNPNAKEFNPRSFSQ R12K (TLNPNAKEFNPKSFSQ)
[14]
  DMS-derived PSSM value, position R12: 0.01776

## TLNPNAKEFNPRSFSQ K7V (TLNPNAVEFNPRSFSQ)
Prey ATXN2, peptide TLNPNAKEFNPRSFSQ, K = wild type
  DMS-derived PSSM value, position K7: 0.007815

Reference: publication PMC12102759 (Protein Science : A Publication of the Protein Society, 2025)
